# “And” between values parts separate entries of the source, which are not always exact repeats. Equal values may be shown once.
# Assays:
# [1] = target: VCB: PROTAC: SMARCA2^BD ternary complex (Homo sapiens, UniProt P40337+P51531); assay: SPR ternary complex measurement, VCB immobilised, 10 µM SMARCA2^BD present; assay type: binding; design: P51531-2, residues 1373-1493 with additional N-terminal SM residues; His6 (TEV site) (N, cleaved yes); GST (TEV site) (N, cleaved yes); made in house; host or cells: SMARCA2^BD: Escherichia coli BL21(DE3); conditions: for Kd: SPR
# Procedure: SPR data were acquired on Biacore 8K or T200 instruments (Cytiva). Target proteins were immobilised at 25 °C on CM5 chips by amine coupling (EDC/NHS, Cytiva) in HBS-P+ running buffer (pH 7.4), containing 2 mM TCEP. […] The reference surface was subsequently deactivated using 1 M ethanolamine. […] Biotinylated VCB was prepared as previously described[27]: in brief, the complex was mixed 1:1 with EZ-Link NHS–PEG4–biotin (Thermo Scientific) and incubated at room temperature for 1 h. Unreacted NHS-biotin was removed using a PD-10 desalting column (Cytiva) into 20 mM HEPES, pH 7.5, 150 mM sodium chloride and 1 mM DTT. The reference surface was generated by deactivating the EDC/NHS-treated surface with 1 M ethanolamine. All interaction experiments were done at 6 °C in running buffer (20 mM TRIS, pH 8.3, 150 mM potassium chloride, 2 mM magnesium chloride, 2 mM TCEP, 0.005% TWEEN 20, 1% dimethyl sulfoxide). For ternary complex measurements, a sensor chip surface with VCB immobilised was used (preparation as described above). Experiments were run in dual-inject mode with 10 µM SMARCA present during the injection and dissociation phase. Sensorgrams from reference surfaces and blank injections were subtracted from the raw data prior to data analysis using Biacore Insight software. Affinity and binding kinetic parameters were determined by global fitting using the 1:1 interaction model with a term for mass-transport included.
# [2] = test system: PBRM1BD5; assay: TR-FRET ternary complex affinity and cooperativity, PBRM1; assay type: binding; conditions: ratio TR-FRET EC50 / TR-FRET EC50 +VCB measured in the same run, PBRM1BD5
# [3] = target: T1, PBRM1BD5 (Homo sapiens, UniProt P40337+Q86U86); assay: as above; assay type: binding; conditions: TR-FRET competition for PBRM1BD5, + VCB; mean ± SD; read-out: TR-FRET Ternary PBRM1BD EC50 (PROTAC + VCB)
# T1 construct: GST (TEV site) (N); His6 (TEV site) (N, cleaved yes); made in house; host or cells: PBRM1^BD5: Escherichia coli BL21(DE3)
# [4] = test system: Caco-2 cell monolayer; assay: Bidirectional permeability measurement in Caco-2 cells; assay type: in vitro ADME
# Summary of the method: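 Compound quantified by LC-MS/MS in samples taken over up to 2 h across 14–21-day Caco-2 monolayers, after 24 h preincubation with 1 µM compound. Runs done without and with 5 µM zosuquidar to probe P-gp. Efflux ratio is the quotient of duplicate-mean Papp,BA over Papp,AB.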
# [5] = Microsomal stability; assay type: in vitro ADME
# Procedure: […] Reactions were terminated by addition of acetonitrile and precipitates separated by centrifugation. Compound concentrations in supernatants were measured by HPLC-MS/MS and clearance was calculated from compound half-lives using the well-stirred liver model.
# Sequence of VCB: PROTAC: SMARCA2^BD ternary complex (P40337 54-213): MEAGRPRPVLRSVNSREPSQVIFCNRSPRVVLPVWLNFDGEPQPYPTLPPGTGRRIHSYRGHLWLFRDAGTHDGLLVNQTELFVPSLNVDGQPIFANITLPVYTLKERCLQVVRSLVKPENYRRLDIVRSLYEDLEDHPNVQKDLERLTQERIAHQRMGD
# Sequence of VCB: PROTAC: SMARCA2^BD ternary complex (Q15369 17-112 partner limits assumed): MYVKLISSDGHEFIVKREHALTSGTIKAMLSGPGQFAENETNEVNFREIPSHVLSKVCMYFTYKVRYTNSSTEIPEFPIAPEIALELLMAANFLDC
# Sequence of VCB: PROTAC: SMARCA2^BD ternary complex (Q15370 1-104 partner limits assumed): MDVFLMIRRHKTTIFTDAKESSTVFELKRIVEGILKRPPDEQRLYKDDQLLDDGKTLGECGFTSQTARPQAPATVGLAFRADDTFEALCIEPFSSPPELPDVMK
# Sequence of VCB: PROTAC: SMARCA2^BD ternary complex (P51531 1373-1493 isoform P51531-2): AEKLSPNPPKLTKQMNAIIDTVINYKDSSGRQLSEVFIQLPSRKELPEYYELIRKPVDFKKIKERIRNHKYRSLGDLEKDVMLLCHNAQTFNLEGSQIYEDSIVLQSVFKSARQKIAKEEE
# T1 sequence (Q86U86 645-766): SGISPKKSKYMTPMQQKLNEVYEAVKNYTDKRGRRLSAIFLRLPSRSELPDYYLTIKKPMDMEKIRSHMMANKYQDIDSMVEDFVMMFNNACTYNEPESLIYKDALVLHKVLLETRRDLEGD
# T1 sequence (P40337 54-213): as the sequence (P40337 54-213) above
# T1 sequence (Q15369 17-112 partner): as the sequence (Q15369 17-112 partner limits assumed) above
# T1 sequence (Q15370 1-104 partner): as the sequence (Q15370 1-104 partner limits assumed) above
compound,measurement,setting,value
Cc1ncsc1-c1ccc(CNC(=O)[C@@H]2C[C@@H](O)CN2C(=O)[C@@H](NC(=O)C2(F)CC2)C(C)(C)C)c(OCCOCCOCCOCCN2CCC(c3ccc4c(c3)n(C3CCCC3)c3nc(=O)c5c(Br)cccc5n43)CC2)c1 [compound 22],Kd,"[1]; ternary complex with SMARCA2BD, mean ± SD",77 ± 14 nM
same,Kd,"[1]; ternary, individual replicates",66.2 nM and 92.4 nM and 71.3 nM
same,alpha,"[1]; cooperativity, SMARCA2, ratio of KD values measured in the same run",0.5
same,cooperativity α (PBRM1BD),[2],2.6 ± 0.1
same,EC50,[3],38 ± 5 nM
same,Caco-2 Pab,[4]; Caco-2,<0.3 10-6 cm/s
same,Caco-2 Pab,"[4]; Caco-2, a to b",<2.78e-07 cm/s
same,Mic. Stab. Human,[5]; human liver microsomes,83 ± 13 % QH
same,Mic. Stab. Human QH,[5]; human liver microsomes,92.060% and 73.150%
same,Mic. Stab. Mouse,[5]; mouse liver microsomes,58 % QH
same,Mic. Stab. Mouse QH,[5]; mouse liver microsomes,57.720%
same,Mic. Stab. Rat,[5]; rat liver microsomes,40 % QH
same,Mic. Stab. Rat QH,[5]; rat liver microsomes,40.440%
